Assay results reported in patent US9708370B2, “Azapeptides as CD36 binding compounds” (VALORISATION-RECHERCHE, LIMITED PARTNERSHIP, priority 2007, dated 2017).
Entries after “also recorded” stand apart in the source; their conditions may differ. Starred links: 1 amine or outer side, 2 acyl side, 3 side chain; linkers in the order of their positions; H or OH if unused. Non-standard residues stand in square brackets, D forms with d. Residues, ends and D or L forms follow the SMILES beside them. azaTyr = O=C(N(Cc1ccc(O)cc1)N[*:1])[*:2]

Legend:
CD36 = CD36 (Rattus norvegicus (Rat), UniProt Q07969); assay: CD36 receptor covalent photolabelling binding assay, competition with [125I]Tyr-Bpa-Ala-hexarelin on rat cardiac membranes
[1] = test system: vascular sprouting of aortic endothelium (aortic rings); assay: Inhibition of microvascular sprouting from Matrigel-embedded aortic explants; type: cell-based, mice
Excerpt: FIG. 1 illustrates disruption of vascular sprouting of aortic endothelium by azapeptide compound DBG178. Sprouting aortic endothelium (Von Willebrand factor positive) expressing CD36 is shown in the upper row of FIG. 1a. Vascular sprouting of aortic rings from C57BL/6 and CD36 null mice in the presence of DBG 178 at 10^−7M is shown in the lower row of FIG. 1a. Histograms of microvascular sprouts areas (mean±s.e.m) from aortic explants of C57BL/6 and CD36 null mice exposed to DBG concentrations from 10^−8 to 10^−6 M p<0.01 compared with control (Ctl) is shown in FIG. 1b.
Aortas were excised from 10-week-old male C57/Bl6+/+ and CD36−/− mice of C57/Bl6 background. The fibroadipose tissue was removed and aortas were sectioned into 2-mm-long cross-sections. The +/+ and −/− rings were covered by 50 μl of Matrigel and cultured for 4 days in EGM-2 medium (Clonetics Corp.). Explants were then exposed to vehicle alone or in presence of an azapeptide prototype DBG178 at the indicated concentrations (10^−8 to 10^−6 M) from day 4 to day 6 of culture in EGM-2 medium. Pictures of each individual explant were taken at day 4 and day 6 and EC growth was measured as the surface covered at day 6 minus the surface covered at day 4 Data were subject to analysis of variance (ANOVA) followed by Dunnet's post test to test for differences among groups. Outgrowing cells were characterized by double-labelling with monoclonal vWF antibody (1:100, Dako) and polyclonal CD36 (1:100, Santa Cruz) after acetone fixation using their respective alexa coupled secondary antibodies.

Sequence of CD36 (Q07969 whole entry): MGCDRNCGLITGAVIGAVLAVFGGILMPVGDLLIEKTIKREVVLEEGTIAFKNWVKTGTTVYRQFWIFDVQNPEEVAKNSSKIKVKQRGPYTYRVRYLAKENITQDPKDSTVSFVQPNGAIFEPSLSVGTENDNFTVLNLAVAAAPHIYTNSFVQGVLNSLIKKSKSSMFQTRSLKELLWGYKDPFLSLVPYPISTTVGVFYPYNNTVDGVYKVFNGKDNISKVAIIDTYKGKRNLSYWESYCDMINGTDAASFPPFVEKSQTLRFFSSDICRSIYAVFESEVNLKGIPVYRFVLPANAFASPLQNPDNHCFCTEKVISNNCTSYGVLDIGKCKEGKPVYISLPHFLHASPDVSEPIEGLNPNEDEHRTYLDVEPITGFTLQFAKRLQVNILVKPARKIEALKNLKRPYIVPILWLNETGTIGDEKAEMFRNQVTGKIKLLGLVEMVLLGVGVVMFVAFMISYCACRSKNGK

IC50 (CD36; Table 3, rat cardiac membranes, [125I]Tyr-Bpa-Ala-hexarelin as radioligand, read-out: IC50, binding affinity of aza peptide derivatives towards CD36): 28 µM
binding activity/affinity at CD36 in words (CD36; compared with parent peptide GHRP-6 or hexarelin): maintaining the binding activity
SMILES: C[C@H](NC(=O)[C@@H](Cc1c[nH]c2ccccc12)NC(=O)[C@@H](N)Cc1cnc[nH]1)C(=O)NN(Cc1ccc(O)cc1)C(=O)N[C@H](Cc1ccccc1)C(=O)N[C@@H](CCCCN)C(N)=O [DBG178p, His-D-Trp-Ala-azaTyr-D-Phe-Lys-NH2] (H-H[dW]A[azaTyr][dF]K-NH2)
inhibition of vascular sprouting of aortic rings ([1]; aortic rings from C57BL/6 mice, 10^−7 to 10^−6 M): disrupt significantly; also recorded: significantly inhibited
inhibitory effect on vascular sprouting of aortic rings ([1]; aortic rings from CD36 null mice): not detected
